Results reported in patent US11857519B2, “Compounds and methods for the targeted degradation of enhancer of zeste homolog 2 polypeptide” (Arvinas Operations, Inc., priority 2016, dated 2024).

target: T1, EZH2 (Homo sapiens, UniProt Q15910); assay: Cellular assay of target protein degradation (VCaP cells, ELISA); assay type: cell-based; conditions: 4 hours, protein degradation range at indicated concentration (relative to DMSO control)
T1 construct: Protocol of the Cellular Assay of Target Protein Degradation (VCaP Cells, ELISA); endogenous in cells; host or cells: VCaP cells
T1 sequence (Q15910 whole entry): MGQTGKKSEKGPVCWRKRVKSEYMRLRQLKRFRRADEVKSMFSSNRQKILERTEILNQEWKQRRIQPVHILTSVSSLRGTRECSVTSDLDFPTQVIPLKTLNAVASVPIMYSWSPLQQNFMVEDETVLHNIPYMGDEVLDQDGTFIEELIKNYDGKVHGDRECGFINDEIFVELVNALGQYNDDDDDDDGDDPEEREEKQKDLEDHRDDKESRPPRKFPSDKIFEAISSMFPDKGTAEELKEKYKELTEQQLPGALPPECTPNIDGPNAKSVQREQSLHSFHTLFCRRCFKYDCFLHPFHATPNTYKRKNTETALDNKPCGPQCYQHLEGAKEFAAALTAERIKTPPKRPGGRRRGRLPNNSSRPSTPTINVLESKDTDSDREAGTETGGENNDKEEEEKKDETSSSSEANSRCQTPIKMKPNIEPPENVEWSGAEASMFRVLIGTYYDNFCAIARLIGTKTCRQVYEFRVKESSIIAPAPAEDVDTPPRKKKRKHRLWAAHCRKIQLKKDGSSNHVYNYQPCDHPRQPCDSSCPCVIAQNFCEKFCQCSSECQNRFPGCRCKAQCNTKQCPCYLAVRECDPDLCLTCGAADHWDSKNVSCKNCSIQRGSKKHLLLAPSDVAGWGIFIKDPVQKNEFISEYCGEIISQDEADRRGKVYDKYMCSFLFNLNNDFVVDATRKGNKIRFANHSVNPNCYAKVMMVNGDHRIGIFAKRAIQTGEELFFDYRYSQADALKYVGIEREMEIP
T1 sequence (O75530 whole entry partner): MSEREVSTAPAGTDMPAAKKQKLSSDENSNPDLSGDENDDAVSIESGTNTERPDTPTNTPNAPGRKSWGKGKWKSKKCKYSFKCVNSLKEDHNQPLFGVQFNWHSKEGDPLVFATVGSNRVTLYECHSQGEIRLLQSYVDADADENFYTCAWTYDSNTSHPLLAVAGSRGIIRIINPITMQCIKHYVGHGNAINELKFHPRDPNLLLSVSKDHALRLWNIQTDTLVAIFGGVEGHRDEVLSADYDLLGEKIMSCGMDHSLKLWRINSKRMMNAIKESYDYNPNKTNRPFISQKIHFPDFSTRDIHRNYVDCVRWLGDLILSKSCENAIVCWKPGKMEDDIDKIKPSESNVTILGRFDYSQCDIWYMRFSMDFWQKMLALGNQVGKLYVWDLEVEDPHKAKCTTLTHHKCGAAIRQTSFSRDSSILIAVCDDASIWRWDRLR
T1 sequence (Q15022 whole entry partner): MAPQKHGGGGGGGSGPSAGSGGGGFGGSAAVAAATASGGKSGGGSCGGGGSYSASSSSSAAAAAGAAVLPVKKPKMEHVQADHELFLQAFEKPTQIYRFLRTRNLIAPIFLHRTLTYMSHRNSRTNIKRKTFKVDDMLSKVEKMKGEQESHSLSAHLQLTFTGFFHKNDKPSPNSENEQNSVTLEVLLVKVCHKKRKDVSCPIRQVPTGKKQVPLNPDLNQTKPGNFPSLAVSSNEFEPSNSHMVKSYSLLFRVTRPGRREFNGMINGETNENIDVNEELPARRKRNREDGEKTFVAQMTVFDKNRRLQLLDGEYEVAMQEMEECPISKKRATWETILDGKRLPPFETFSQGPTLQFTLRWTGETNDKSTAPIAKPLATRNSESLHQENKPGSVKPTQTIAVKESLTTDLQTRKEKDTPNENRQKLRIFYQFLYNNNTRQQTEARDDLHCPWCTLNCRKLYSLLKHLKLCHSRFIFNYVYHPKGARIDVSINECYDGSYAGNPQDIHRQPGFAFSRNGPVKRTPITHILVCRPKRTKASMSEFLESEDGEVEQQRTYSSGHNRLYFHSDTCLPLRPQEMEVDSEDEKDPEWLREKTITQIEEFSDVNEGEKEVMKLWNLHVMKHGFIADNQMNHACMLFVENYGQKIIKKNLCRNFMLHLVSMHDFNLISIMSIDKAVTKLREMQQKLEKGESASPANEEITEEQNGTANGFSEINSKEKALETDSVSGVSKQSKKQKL
Summary of the method: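 VCaP cells grown ≥3 days in RPMI with 5% CSS, then dosed with compounds in 0.1% DMSO for 4 h. Lysates analysed by sandwich ELISA for EZH2 with TMB readout at 450 nm, 562 nm used for background subtraction.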

Row | percent target protein degradation class | SMILES
1 | B (B = degradation between 30% and 60%) | CCN(c1cc(-c2ccc(CCCOCCOCC(=O)N[C@H](C(=O)N3C[C@H](O)C[C@H]3C(=O)NCc3ccc(-c4scnc4C)cc3)C(C)(C)C)cc2)cc(C(=O)NCc2c(C)cc(C)[nH]c2=O)c1C)C1CCOCC1 [Compound 47, (2S,4R)-1-[(2S)-2-[2-(2-{3-[4-(3-{[(4,6-dimethyl-2-oxo-1,2-dihydropyridin-3-yl)methyl]carbamoyl}-5-[ethyl(oxan-4-yl)amino]-4-methylphenyl)phenyl]propoxy}ethoxy)acetamido]-3,3-dimethylbutanoyl]-4-hydroxy-N-{[4-(4-methyl-1,3-thiazol-5-yl)phenyl]methyl}pyrrolidine-2-carboxamide]
2 | A (A = degradation more than 60%) | CCN(c1cc(-c2ccc(OCCCOCCCOCC(=O)N[C@H](C(=O)N3C[C@H](O)C[C@H]3C(=O)NCc3ccc(-c4scnc4C)cc3)C(C)(C)C)cc2)cc(C(=O)NCc2c(C)cc(C)[nH]c2=O)c1C)C1CCOCC1 [Compound 48, (2S,4R)-1-[(2S)-2-[2-(3-{3-[4-(3-{[(4,6-dimethyl-2-oxo-1,2-dihydropyridin-3-yl)methyl]carbamoyl}-5-[ethyl(oxan-4-yl)amino]-4-methylphenyl)phenoxy]propoxy}propoxy)acetamido]-3,3-dimethylbutanoyl]-4-hydroxy-N-{[4-(4-methyl-1,3-thiazol-5-yl)phenyl]methyl}pyrrolidine-2-carboxamide]
3 | B (B = degradation between 30% and 60%) | CCN(c1cc(-c2ccc(OCCOCCCCCOc3cc(-c4scnc4C)ccc3CNC(=O)[C@@H]3C[C@@H](O)CN3C(=O)[C@H](C(C)C)N3Cc4ccccc4C3=O)cc2)cc(C(=O)NCc2c(C)cc(C)[nH]c2=O)c1C)C1CCOCC1 [Compound 49, (2S,4R)-N-({2-[(5-{2-[4-(3-{[(4,6-dimethyl-2-oxo-1,2-dihydropyridin-3-yl)methyl]carbamoyl}-5-[ethyl(oxan-4-yl)amino]-4-methylphenyl)phenoxy]ethoxy}pentyl)oxy]-4-(4-methyl-1,3-thiazol-5-yl)phenyl}methyl)-4-hydroxy-1-[(2S)-3-methyl-2-(1-oxo-2,3-dihydro-1H-isoindol-2-yl)butanoyl]pyrrolidine-2-carboxamide]
4 | A (A = degradation more than 60%) | CCN(c1cc(-c2ccc(OCCCCCOCCOc3cc(-c4scnc4C)ccc3CNC(=O)[C@@H]3C[C@@H](O)CN3C(=O)[C@H](C(C)C)N3Cc4ccccc4C3=O)cc2)cc(C(=O)NCc2c(C)cc(C)[nH]c2=O)c1C)C1CCOCC1 [Compound 50, (2S,4R)-N-({2-[2-({5-[4-(3-{[(4,6-dimethyl-2-oxo-1,2-dihydropyridin-3-yl)methyl]carbamoyl}-5-[ethyl(oxan-4-yl)amino]-4-methylphenyl)phenoxy]pentyl}oxy)ethoxy]-4-(4-methyl-1,3-thiazol-5-yl)phenyl}methyl)-4-hydroxy-1-[(2S)-3-methyl-2-(1-oxo-2,3-dihydro-1H-isoindol-2-yl)butanoyl]pyrrolidine-2-carboxamide]
5 | B (B = degradation between 30% and 60%) | CCN(c1cc(-c2ccc(OCCCOCCOCCOc3cc(-c4scnc4C)ccc3CNC(=O)[C@@H]3C[C@@H](O)CN3C(=O)[C@H](C(C)C)N3Cc4ccccc4C3=O)cc2)cc(C(=O)NCc2c(C)cc(C)[nH]c2=O)c1C)C1CCOCC1 [Compound 54, (2S,4R)-N-({2-[2-(2-{3-[4-(3-{[(4,6-dimethyl-2-oxo-1,2-dihydropyridin-3-yl)methyl]carbamoyl}-5-[ethyl(oxan-4-yl)amino]-4-methylphenyl)phenoxy]propoxy}ethoxy)ethoxy]-4-(4-methyl-1,3-thiazol-5-yl)phenyl}methyl)-4-hydroxy-1-[(2S)-3-methyl-2-(1-oxo-2,3-dihydro-1H-isoindol-2-yl)butanoyl]pyrrolidine-2-carboxamide]
6 | B (B = degradation between 30% and 60%) | CCN(c1cc(-c2ccc(OCCCOCCOc3cc(-c4scnc4C)ccc3CNC(=O)[C@@H]3C[C@@H](O)CN3C(=O)[C@H](C(C)C)N3Cc4ccccc4C3=O)cc2)cc(C(=O)NCc2c(C)cc(C)[nH]c2=O)c1C)C1CCOCC1 [Compound 56, (2S,4R)-N-{[2-(2-{3-[4-(3-{[(4,6-dimethyl-2-oxo-1,2-dihydropyridin-3-yl)methyl]carbamoyl}-5-[ethyl(oxan-4-yl)amino]-4-methylphenyl)phenoxy]propoxy}ethoxy)-4-(4-methyl-1,3-thiazol-5-yl)phenyl]methyl}-4-hydroxy-1-[(2S)-3-methyl-2-(1-oxo-2,3-dihydro-1H-isoindol-2-yl)butanoyl]pyrrolidine-2-carboxamide]
7 | B (B = degradation between 30% and 60%) | CCN(c1cc(-c2ccc(OCCOCCOc3ccc4c(c3)C(=O)N(C3CCC(=O)NC3=O)C4=O)cc2)cc(C(=O)NCc2c(C)cc(C)[nH]c2=O)c1C)C1CCOCC1 (centres unmarked) [Compound 57, N-[(4,6-dimethyl-2-oxo-1,2-dihydropyridin-3-yl)methyl]-5-{4-[2-(2-{[2-(2,6-dioxopiperidin-3-yl)-1,3-dioxo-2,3-dihydro-1H-isoindol-5-yl]oxy}ethoxy)ethoxy]phenyl}-3-[ethyl(oxan-4-yl)amino]-2-methylbenzamide]
8 | A (A = degradation more than 60%) | CCN(c1cc(-c2ccc(OCCOCCCOc3ccc4c(c3)C(=O)N(C3CCC(=O)NC3=O)C4=O)cc2)cc(C(=O)NCc2c(C)cc(C)[nH]c2=O)c1C)C1CCOCC1 (centres unmarked) [Compound 58, N-[(4,6-dimethyl-2-oxo-1,2-dihydropyridin-3-yl)methyl]-5-{4-[2-(3-{[2-(2,6-dioxopiperidin-3-yl)-1,3-dioxo-2,3-dihydro-1H-isoindol-5-yl]oxy}propoxy)ethoxy]phenyl}-3-[ethyl(oxan-4-yl)amino]-2-methylbenzamide]
9 | B (B = degradation between 30% and 60%) | CCN(c1cc(-c2ccc(OCCCN3CCN(c4ccc5c(c4)C(=O)N(C4CCC(=O)NC4=O)C5=O)CC3)cc2)cc(C(=O)NCc2c(C)cc(C)[nH]c2=O)c1C)C1CCOCC1 (centres unmarked) [Compound 61, N-[(4,6-dimethyl-2-oxo-1,2-dihydropyridin-3-yl)methyl]-5-[4-(3-{4-[2-(2,6-dioxopiperidin-3-yl)-1,3-dioxo-2,3-dihydro-1H-isoindol-5-yl]piperazin-1-yl}propoxy)phenyl]-3-[ethyl(oxan-4-yl)amino]-2-methylbenzamide]

Row | SMILES | percent target protein degradation class
10 | CCN(c1cc(-c2ccc(OCCCOCCCCOc3cc(-c4scnc4C)ccc3CNC(=O)[C@@H]3C[C@@H](O)CN3C(=O)[C@H](C(C)C)N3Cc4ccccc4C3=O)cc2)cc(C(=O)NCc2c(C)cc(C)[nH]c2=O)c1C)C1CCOCC1 [Compound 51, (2S,4R)-N-{[2-(4-{3-[4-(3-{[(4,6-dimethyl-2-oxo-1,2-dihydropyridin-3-yl)methyl]carbamoyl}-5-[ethyl(oxan-4-yl)amino]-4-methylphenyl)phenoxy]propoxy}butoxy)-4-(4-methyl-1,3-thiazol-5-yl)phenyl]methyl}-4-hydroxy-1-[(2S)-3-methyl-2-(1-oxo-2,3-dihydro-1H-isoindol-2-yl)butanoyl]pyrrolidine-2-carboxamide] | B (B = degradation between 30% and 60%)
11 | CCN(c1cc(-c2ccc(OCCCCOCCOc3cc(-c4scnc4C)ccc3CNC(=O)[C@@H]3C[C@@H](O)CN3C(=O)[C@H](C(C)C)N3Cc4ccccc4C3=O)cc2)cc(C(=O)NCc2c(C)cc(C)[nH]c2=O)c1C)C1CCOCC1 [Compound 53, (2S,4R)-N-{[2-(2-{4-[4-(3-{[(4,6-dimethyl-2-oxo-1,2-dihydropyridin-3-yl)methyl]carbamoyl}-5-[ethyl(oxan-4-yl)amino]-4-methylphenyl)phenoxy]butoxy}ethoxy)-4-(4-methyl-1,3-thiazol-5-yl)phenyl]methyl}-4-hydroxy-1-[(2S)-3-methyl-2-(1-oxo-2,3-dihydro-1H-isoindol-2-yl)butanoyl]pyrrolidine-2-carboxamide] | B (B = degradation between 30% and 60%)
12 | CCN(c1cc(-c2ccc(OCCCCOCCOCCOc3cc(-c4scnc4C)ccc3CNC(=O)[C@@H]3C[C@@H](O)CN3C(=O)[C@H](C(C)C)N3Cc4ccccc4C3=O)cc2)cc(C(=O)NCc2c(C)cc(C)[nH]c2=O)c1C)C1CCOCC1 [Compound 55, (2S,4R)-N-({2-[2-(2-{4-[4-(3-{[(4,6-dimethyl-2-oxo-1,2-dihydropyridin-3-yl)methyl]carbamoyl}-5-[ethyl(oxan-4-yl)amino]-4-methylphenyl)phenoxy]butoxy}ethoxy)ethoxy]-4-(4-methyl-1,3-thiazol-5-yl)phenyl}methyl)-4-hydroxy-1-[(2S)-3-methyl-2-(1-oxo-2,3-dihydro-1H-isoindol-2-yl)butanoyl]pyrrolidine-2-carboxamide] | B (B = degradation between 30% and 60%)
13 | CCN(c1cc(-c2ccc(N3CCN(CCCCOCC(=O)N[C@H](C(=O)N4C[C@H](O)C[C@H]4C(=O)N[C@@H](C)c4ccc(-c5scnc5C)cc4)C(C)(C)C)CC3)cc2)cc(C(=O)NCc2c(C)cc(C)[nH]c2=O)c1C)C1CCOCC1 [Compound 59, (2S,4R)-1-((S)-2-(2-(4-(4-(3′-(((4,6-dimethyl-2-oxo-1,2-dihydropyridin-3-yl)methyl)carbamoyl)-5′-(ethyl(tetrahydro-2H-pyran-4-yl)amino)-4′-methyl-[1,1′-biphenyl]-4-yl)piperazin-1-yl)butoxy)acetamido)-3,3-dimethylbutanoyl)-4-hydroxy-N-((S)-1-(4-(4-methylthiazol-5-yl)phenyl)ethyl)pyrrolidine-2-carboxamide] | B (B = degradation between 30% and 60%)
14 | CCN(c1cc(-c2ccc(OCCCCOc3ccc4c(c3)C(=O)N(C3CCC(=O)NC3=O)C4=O)cc2)cc(C(=O)NCc2c(C)cc(C)[nH]c2=O)c1C)C1CCOCC1 (centres unmarked) [Compound 60, N-[(4,6-dimethyl-2-oxo-1,2-dihydropyridin-3-yl)methyl]-5-[4-(4-{[2-(2,6-dioxopiperidin-3-yl)-1,3-dioxo-2,3-dihydro-1H-isoindol-5-yl]oxy}butoxy)phenyl]-3-[ethyl(oxan-4-yl)amino]-2-methylbenzamide] | A (A = degradation more than 60%)
